This note sets out measurements from patent US3946006A, “Tetrahydrothiadiazinethiones” (Sterling Drug Inc., priority 1974, dated 1976).

Assay in all cases: minimal inhibiting concentration (MIC), filter disc agar plate test
Common to all, as to assay type: cell-based

The test system of assay [1] is Escherichia coli. The settings on record: E. coli; nutrient agar, 24 hours incubation. On the procedure:
(§1) The bacteriological effectiveness of the compounds of the invention was determined with reference to minimal inhibiting concentrations, that is, the minimal concentration that will effect complete inhibition of germ growth (MIC). The test procedure is as follows:
(§2) A 1% suspension, botained by homogenizing 500 mg. of the test agent in 50 ml. of 0.5% natrosol solution (natrosol 250 HRPS = hydroxymethylcellulose), is serially diluted with 0.5% natrosol solution to provide suspensions, in sterile test tubes, having concentrations of 0.1, 0.05, 0.01 and 0.005 percent. To ensure accuracy in dilution, the suspensions are mixed with the aid of a mechanical mixer. The dilutions (6 ml.) are added to sterile cups and immediately 10 filter discs (.phi. about 10 mm) are placed on the surface of the liquid in each cup. The filter discs, which slowly sink to the bottom on becoming saturated, are left in the solutions for one hour. 16-Hour old cultures of Escherichia coli, Staphylococcus aureus, Pyoceanus fluorescens and Proteus vulgaris are diluted at the ratio of 1:10 in glucose broth. 1-Week cultures of Penicillium glaucum, Aspergillus niger, Chaetomium globosum, Trichoderma viride, Humicola sp., Scopulariopsis brevicaulis, Pullularia pullulans, Sclerophoma pityophila, Saccharomyces cerevisiae and Candida albicans are harvested by rinsing and diluted 1:10 in nutrient broth.
(§3) Standard II nutrient agar plates, with an addition of lactose and bromothymol blue (BROLAC agar) for bacteria, and Sabouraud agar plates for yeasts and fungi, are dried and labeled (10 Sabouraud agar plates and 4 nutrient agar plates were used per preparation). Of the diluted germ suspensions, 0.05 ml (1 drop) is inoculated onto each plate. Prior to further treatment, the plates are allowed to stand for one-half hour to absorb the germ suspension. Filter discs, corresponding to each of the five dilutions, are placed on the surface of each inoculated plate for each culture (step 1). The plates are examined for zones of inhibition after twenty-four hours incubation in the case of bacteria, and after three days incubation in the case of yeasts and fungi. Antimicrobial activity is indicated by occurance of a zone of inhibition. In the case of bacteria, the purity of the culture can be determined at the same time by lactose fermentation as indicated by color change in the nutrient medium. A visible inhibition ring is designated as negative growth an no inhibition ring as 3+ growth. […] A new dilution series then is prepared, with only one, or at most two, filter discs being placed on the surface of each plate for each culture. Activity is then determined as described above.
(§4) The MIC values, expressed in percent concentration of the test agent, is presented in TAble 1 for compounds of the invention having formula I designated Example 1 (R--O--A = CH2 CH2 OCH3), Example 2 (R--O--A = CH2 CH2 OCH3) and Example 4(R--O--A = CH2 CH2 CH2 OCH2 CH3), and for two known compounds, designated A (3,5-dibenzyl-tetrahydro-2H-1,3,5-thiadiazine-2-thione) and B[3,5-bis(2-hydroxyethyl)-2H-1,3,5-thiadiazine-2-thione].

Assay [2] has as its system Pyoceanus fluorescens. The note with it: P. fluorescens; nutrient agar, 24 hours incubation. On the procedure:
as §1, §2, §3, §4

The test system of assay [3] is Scopulariopsis brevicaulis. The note with it: S. brevicaulis; Sabouraud agar, three days incubation. How it is done:
as §1, §2, §3, §4

The subject of assay [4] is Penicillium glaucum. The note with it: P. glaucum; Sabouraud agar, three days incubation. How it is done: as §1, §2, §3, §4
The test system of assay [5] is Humicola sp. The settings on record: Sabouraud agar, three days incubation. On the procedure: as §1, §2, §3, §4
Assay [6] deals with Candida albicans. The settings on record: C. albicans; Sabouraud agar, three days incubation. How it is done:
as §1, §2, §3, §4

Assay [7] deals with Sclerophoma pityophila. The settings on record: S. pityophila; Sabouraud agar, three days incubation. On the procedure:
as §1, §2, §3, §4

In assay [8] the test system is Aspergillus niger. The settings on record: A. niger; Sabouraud agar, three days incubation. How it is done:
as §1, §2, §3, §4

The test system of assay [9] is Proteus vulgaris. The note with it: P. vulgaris; nutrient agar, 24 hours incubation. On the procedure: as §1, §2, §3, §4
Assay [10] relates to Staphylococcus aureus. The note with it: S. aureus; nutrient agar, 24 hours incubation. On the procedure: as §1, §2, §3, §4
In assay [11] the test system is Trichoderma viride. The settings on record: T. viride; Sabouraud agar, three days incubation. On the procedure: as §1, §2, §3, §4
The test system of assay [12] is Saccharomyces cerevisiae. The note with it: S. cerevisiae; Sabouraud agar, three days incubation. How it is done:
as §1, §2, §3, §4

The subject of assay [13] is Pullularia pullulans. The settings on record: P. pullulans; Sabouraud agar, three days incubation. On the procedure: as §1, §2, §3, §4
The test system of assay [14] is Chaetomium globosum. The note with it: C. globosum; Sabouraud agar, three days incubation. On the procedure:
as §1, §2, §3, §4

Where only a bound is given, the exact number is not on record here.

On to `COCCN1CSC(=S)N(CCOC)C1` [Ex. 2, 3,5-Bis(2-methoxyethyl)-tetrahydro-2H-1,3,5-thiadiazine-2-thione], for which the MIC in [1] was 0.1 % conc; in assay [2], 0.1 % conc; in assay [3] it was under 0.005 % conc; in assay [4], 0.05 % conc; in assay [5], under 0.005 % conc; in assay [6], 0.05 % conc. Also, the MIC was under 0.005 % conc in assay [7]; 0.1 % conc in assay [8]; 0.1 % conc in [9]; 0.07 % conc in assay [10]; 0.1 % conc in assay [11]; 0.01 % conc in assay [12]. For the same compound, the MIC in assay [13] is listed as 0.05 % conc; in assay [14], 0.01 % conc.

In the case of `OCCN1CSC(=S)N(CCO)C1` [B, 3,5-bis(2-hydroxyethyl)-2H-1,3,5-thiadiazine-2-thione, reference compound], the MIC came to 1 % conc in [1]; 0.1 % conc in [2]; 0.1 % conc in [3]; 1 % conc in assay [4]; 0.1 % conc in [5]; 1 % conc in [6]. Further, the MIC is given as 0.01 % conc in assay [7]; 1 % conc in assay [8]; 1 % conc in assay [9]; 0.05 % conc in assay [10]; 1 % conc in assay [11]; 0.1 % conc in assay [12]. Besides, the MIC was 0.01 % conc in assay [13] and 1 % conc in assay [14].

As for `COCCCN1CSC(=S)N(CCCOC)C1` [Ex. 1, 3,5-Bis(3-methoxypropyl)-tetrahydro-2H-1,3,5-thiadiazine-2-thione], the MIC in [1] is given as 0.1 % conc; in assay [2], 0.1 % conc; in assay [3] it was 0.005 % conc; in assay [4], 0.005 % conc; in [5] it was 0.01 % conc; in assay [6], 0.05 % conc. Further, the MIC in assay [7] turned out to be 0.005 % conc; in [8] it was 0.03 % conc; in assay [9], 0.1 % conc; in assay [10], 0.05 % conc; in assay [11], 0.03 % conc; in assay [12], 0.05 % conc. Moreover, the MIC in assay [13] and in assay [14] was 0.005 % conc throughout.

As to `S=C1SCN(Cc2ccccc2)CN1Cc1ccccc1` [A, 3,5-dibenzyl-tetrahydro-2H-1,3,5-thiadiazine-2-thione, reference compound], the MIC in [1] was 1 % conc; in assay [2], 1 % conc; in [3], over 1 % conc; in assay [4] it was over 1 % conc; in assay [5] it was over 1 % conc; in assay [6] it was over 1 % conc. Further, the MIC in assay [7] is listed as over 1 % conc; in assay [8], over 1 % conc; in assay [9], 1 % conc; in assay [10], 1 % conc; in [11], over 1 % conc; in assay [12], over 1 % conc. Also, the MIC in [13] and in assay [14] was over 1 % conc throughout.

`CCOCCCN1CSC(=S)N(CCCOCC)C1` [Ex. 4, 3,5-Bis(3-ethoxypropyl)-tetrahydro-2H-1,3,5-thiadiazine-2-thione]: the MIC was 0.1 % conc in [1]; 0.1 % conc in [2]; under 0.003 % conc in assay [4]; 0.01 % conc in [6]; under 0.003 % conc in assay [7]; under 0.003 % conc in assay [8]. Moreover, the MIC in [9] is 0.05 % conc; in [10], 0.05 % conc; in assay [12] it was under 0.003 % conc; in assay [13] it was under 0.003 % conc.
